In ChEMBL document CHEMBL1133938, “Parallel solid-phase synthesis of zatebradine analogues as potential I(f) channel blockers” (2001):

Species: Cavia porcellus
Experiment: Inhibitory activity to reduce the spontaneous beating of isolated guinea-pig atria in a concentration-dependent manner at the dose of 3 uM
Type: functional

Structure (SMILES)	Max inhibition [%]	inhibition at 3 µM [%]
COc1cc2c(cc1OC)CC(=O)N(CCCNCCOc1ccccc1)C=C2	80	53
COc1ccc(CCNCCCN2C=Cc3cc(OC)c(OC)cc3CC2=O)cc1	69	60
C=CCN(CCCN1C=Cc2cc(OC)c(OC)cc2CC1=O)CCc1ccccc1	71	53
COc1cc2c(cc1OC)CC(=O)N(CCCNCCCCc1ccccc1)C=C2	84	43
COc1cc2c(cc1OC)CC(=O)N(CCCNCCc1ccccc1)C=C2	81	60
C=CCN(CCCN1C=Cc2cc(OC)c(OC)cc2CC1=O)CCc1ccc(Cl)cc1	60	31
C=CCN(CCCc1ccccc1)CCCN1C=Cc2cc(OC)c(OC)cc2CC1=O	100	44
COc1ccc(CCNCCCN2CCc3cc(OC)c(OC)cc3CC2=O)cc1OC	68	40
COc1ccc(CCNCCCN2C=Cc3cc(OC)c(OC)cc3CC2=O)cc1OC	77	59
COc1cc2c(cc1OC)CC(=O)N(CCCNCCc1ccc(Cl)cc1)C=C2	68	60
C=CCN(CCCN1C=Cc2cc(OC)c(OC)cc2CC1=O)CCc1ccc(OC)cc1	81	80
C=CCN(CCCCc1ccccc1)CCCN1C=Cc2cc(OC)c(OC)cc2CC1=O	91	54
COc1ccc(CCN(CCCN2C=Cc3cc(OC)c(OC)cc3CC2=O)Cc2ccccc2)cc1OC	59	25
C=CCN(CCCN1C=Cc2cc(OC)c(OC)cc2CC1=O)CCc1ccc(OC)c(OC)c1	69	34
C=CCN(CCCN1C=Cc2cc(OC)c(OC)cc2CC1=O)CCOc1ccccc1	100	42
COc1cc2c(cc1OC)CC(=O)N(CCCNCCCc1ccccc1)C=C2	60	31
